Source: ChEMBL document CHEMBL1177702, “Design of selective, ATP-competitive inhibitors of Akt” (J Med Chem, 2010)

Assays:
[1] = biological target: Cyclin-dependent kinase 7 (Homo sapiens) (UniProt P50613); experiment: Inhibition of CDK7 at 1 uM
[2] = biological target: Ribosomal protein S6 kinase alpha-5 (Homo sapiens) (UniProt O75582); experiment: Inhibition of MSK1 at 1 uM
[3] = Fraction unbound in rat plasma at 10 uM; format: ADME, cell-free
[4] = Fraction unbound in rat liver microsomes at 1 uM; format: ADME, Microsome
[5] = Volume of distribution at steady state in rat at 2 mg/kg, iv; format: ADME, organism-based; set-up: dose 2 mg/kg, route intravenous; settings: in vivo, read-out: Vdss
[6] = Cmax in rat at 2 mg/kg, iv; format: ADME, organism-based; set-up: dose 2 mg/kg, route intravenous; settings: in vivo
[7] = AUClast in jugular/portal vein catheterized rat at 5 mg/kg, po; format: ADME, organism-based; set-up: time 0 - last, dose 5 mg/kg, route oral; settings: plasma
[8] = Cmax in jugular/portal vein catheterized rat at 5 mg/kg, po; format: ADME, organism-based; set-up: dose 5 mg/kg, route oral; settings: in vivo
[9] = Oral bioavailability in jugular/portal vein catheterized rat at 5 mg/kg; format: ADME, organism-based; settings: in vivo
[10] = AUC (0 to infinity) in dog at 1.2 mg/kg, iv; format: ADME, organism-based, Canis lupus familiaris; set-up: time infinity, dose 1.2 mg/kg, route intravenous; settings: plasma
[11] = Blood clearance in dog at 1.2 mg/kg, iv; format: ADME, organism-based, Canis lupus familiaris; set-up: dose 1.2 mg/kg, route intravenous; settings: whole blood
[12] = Half life in dog at 1.2 mg/kg, iv; format: ADME, organism-based, Canis lupus familiaris; set-up: dose 1.2 mg/kg, route intravenous; settings: in vivo
[13] = Cmax in dog at 1.2 mg/kg, iv; format: ADME, organism-based, Canis lupus familiaris; set-up: dose 1.2 mg/kg, route intravenous; settings: in vivo
PC-3 [14] = experiment: Antitumor activity against human PC3 cells xenografted in SCID/Beige mouse assessed as tumor growth inhibition at 100 mg/kg, po BID for 10 days; format: functional; settings: PC-3, 240 h, read-out: TGI
PC-3 [15] = experiment: Antitumor activity against human PC3 cells xenografted in SCID/Beige mouse assessed as tumor growth inhibition at 75 mg/kg, po BID for 10 days in presence of 10 mg/kg, ip rapamycin; format: functional
COLO 205 = experiment: Antitumor activity against human COLO205 cells xenografted in SCID/Beige mouse assessed as tumor growth inhibition at 150 mg/kg, po BID for 10 days measured after 10 days; format: functional; settings: COLO 205, 240 h, read-out: TGI
Mus musculus [16] = experiment: Inhibition of AKT1/p70S6K1 in SCID/Beige mouse xenografted with human PC3 cells assessed as reduction of phosphorylated S6 level at 75 mg/kg, po administered as single dose measured 2 to 4 hrs by immunoblot analysis; format: functional; settings: PC-3
Mus musculus [17] = experiment: Inhibition of AKT1/p70S6K1 in SCID/Beige mouse xenografted with human PC3 cells assessed as area under the inhibitory curve of reduced phosphorylated S6 level at 75 mg/kg, po administered as single dose measured up to 24 hrs; format: functional, PC-3
Mus musculus [18] = experiment: Inhibition of AKT1/p70S6K1 in SCID/Beige mouse xenografted with human PC3 cells assessed as area under the inhibitory curve of reduced phosphorylated S6 level at 25 mg/kg, po administered as single dose measured up to 24 hrs; format: functional, PC-3
Mus musculus [19] = experiment: Inhibition of AKT1/p70S6K1 in SCID/Beige mouse xenografted with human PC3 cells assessed as average inhibition of S6 phosphorylation at 100 mg/kg, po administered as single dose measured up to 24 hrs by immunoblot analysis; format: functional; settings: PC-3, 24 h
Mus musculus [20] = experiment: Inhibition of AKT1/p70S6K1 in SCID/Beige mouse xenografted with human PC3 cells assessed as average inhibition of S6 phosphorylation at 75 mg/kg, po administered as single dose measured up to 24 hrs by immunoblot analysis; format: functional; settings: PC-3, 24 h
Mus musculus [21] = experiment: Inhibition of AKT1/p70S6K1 in SCID/Beige mouse xenografted with human PC3 cells assessed as average inhibition of S6 phosphorylation at 25 mg/kg, po administered as single dose measured up to 24 hrs by immunoblot analysis; format: functional; settings: PC-3, 24 h
Mus musculus [22] = experiment: Inhibition of AKT1/p70S6K1 in SCID/Beige mouse xenografted with human PC3 cells assessed as loss of feedback loop-associated increase in AKT hyperphosphorylation at 25 mg/kg, po administered as single dose measured 1 hr by immunoblot analysis; format: functional, PC-3; set-up: scale not given: the % may be the effect or the level left
Mus musculus [23] = experiment: Inhibition of AKT1/p70S6K1 in SCID/Beige mouse xenografted with human PC3 cells assessed as area under the effect curve of increased AKT phosphorylation related to loss of feedback loop at 75 mg/kg, po administered as single dose measured up to 24 hrs; format: functional, PC-3
Mus musculus [24] = experiment: Inhibition of AKT1/p70S6K1 in SCID/Beige mouse xenografted with human PC3 cells assessed as area under the effect curve of increased AKT phosphorylation related to loss of feedback loop at 25 mg/kg, po administered as single dose measured up to 24 hrs; format: functional, PC-3
Mus musculus [25] = experiment: Inhibition of AKT1/p70S6K1 in SCID/Beige mouse xenografted with human PC3 cells assessed as average increase in AKT phosphorylation related to loss of feedback loop at 25 mg/kg, po administered as single dose measured up to 24 hrs by immunoblot analysis; format: functional, PC-3; set-up: scale not given: the % may be the effect or the level left
[26] = Cmax in SCID/Beige mouse xenografted with human PC3 cells at 100 mg/kg, po BID for 10 days; format: ADME, organism-based, PC-3; set-up: dose 100 mg/kg, route oral; settings: in vivo
[27] = Cmax in SCID/Beige mouse xenografted with human PC3 cells at 75 mg/kg, po BID for 10 days; format: ADME, organism-based, PC-3; set-up: dose 75 mg/kg, route oral; settings: in vivo
Mus musculus [28] = experiment: fCmax in SCID/Beige mouse xenografted with human PC3 cells at 100 mg/kg, po BID for 10 days; format: ADME, organism-based, PC-3; set-up: dose 100 mg/kg, route oral; settings: in vivo, 240 h
Mus musculus [29] = experiment: fAUC in SCID/Beige mouse xenografted with human PC3 cells at 100 mg/kg, po BID for 10 days; format: ADME, organism-based, PC-3; set-up: dose 100 mg/kg, route oral; settings: in vivo, 240 h
Mus musculus [30] = experiment: fAUC in SCID/Beige mouse xenografted with human PC3 cells at 25 mg/kg, po BID for 10 days; format: ADME, organism-based, PC-3; set-up: dose 25 mg/kg, route oral; settings: in vivo, 240 h
[31] = Plasma concentration in SCID/Beige mouse xenografted with human PC3 cells at 75 mg/kg, po BID for 10 days; format: ADME, organism-based, PC-3; set-up: dose 75 mg/kg, route oral
[32] = Plasma concentration in SCID/Beige mouse xenografted with human PC3 cells at 25 mg/kg, po BID for 10 days; format: ADME, organism-based, PC-3; set-up: dose 25 mg/kg, route oral
Mus musculus [33] = experiment: Free plasma concentration in SCID/Beige mouse xenografted with human PC3 cells at 25 mg/kg, po BID for 10 days; format: ADME, organism-based, PC-3; set-up: dose 25 mg/kg, route oral; settings: in vivo, 240 h
Mus musculus [34] = experiment: Toxicity in SCID/Beige mouse xenografted with human PC3 cells assessed as weight loss at 25 to 100 mg/kg, po BID for 10 days; format: organism-based, PC-3; set-up: dose 25-100 mg/kg, route oral; settings: in vivo, 240 h

Cyclin-dependent kinase 7 (Homo sapiens), sequence (P50613 whole entry): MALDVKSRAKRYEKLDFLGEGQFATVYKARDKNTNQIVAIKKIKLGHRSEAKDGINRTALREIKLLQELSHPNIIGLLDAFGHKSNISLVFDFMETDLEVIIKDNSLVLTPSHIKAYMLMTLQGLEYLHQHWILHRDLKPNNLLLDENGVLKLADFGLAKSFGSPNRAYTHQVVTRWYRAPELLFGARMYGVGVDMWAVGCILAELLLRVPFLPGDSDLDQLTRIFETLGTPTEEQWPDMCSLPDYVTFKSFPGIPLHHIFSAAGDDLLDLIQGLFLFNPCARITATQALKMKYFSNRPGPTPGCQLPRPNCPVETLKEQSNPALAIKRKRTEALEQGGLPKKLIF
Ribosomal protein S6 kinase alpha-5 (Homo sapiens), sequence (O75582 whole entry, looked up): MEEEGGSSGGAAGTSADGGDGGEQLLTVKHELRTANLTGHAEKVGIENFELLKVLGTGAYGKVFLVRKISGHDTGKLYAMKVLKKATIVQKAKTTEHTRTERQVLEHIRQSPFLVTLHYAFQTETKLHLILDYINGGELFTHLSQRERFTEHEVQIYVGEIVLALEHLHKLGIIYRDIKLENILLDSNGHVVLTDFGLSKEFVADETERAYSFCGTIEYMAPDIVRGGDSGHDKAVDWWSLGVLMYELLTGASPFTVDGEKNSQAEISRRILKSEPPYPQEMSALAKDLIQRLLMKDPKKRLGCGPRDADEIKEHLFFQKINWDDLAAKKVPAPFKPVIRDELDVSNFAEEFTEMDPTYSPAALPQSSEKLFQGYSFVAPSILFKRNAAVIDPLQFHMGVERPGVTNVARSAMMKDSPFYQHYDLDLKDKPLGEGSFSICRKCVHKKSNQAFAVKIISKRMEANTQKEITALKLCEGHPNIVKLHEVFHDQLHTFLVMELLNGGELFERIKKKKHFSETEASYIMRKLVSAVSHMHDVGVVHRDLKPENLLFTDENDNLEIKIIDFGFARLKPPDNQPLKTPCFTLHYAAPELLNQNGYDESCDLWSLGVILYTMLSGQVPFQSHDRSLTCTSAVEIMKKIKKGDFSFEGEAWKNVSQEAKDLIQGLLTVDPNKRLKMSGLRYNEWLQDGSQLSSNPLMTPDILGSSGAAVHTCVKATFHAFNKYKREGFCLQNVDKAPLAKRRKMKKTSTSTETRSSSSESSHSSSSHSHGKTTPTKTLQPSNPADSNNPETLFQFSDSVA

inhibition [1]: > 50% | inhibition [2]: > 50% | fraction unbound at 10 µM [3]: 0.305 | fraction unbound at 1 µM [4]: 0.667 | Vd [5]: 5.73 L/kg | Cmax [6]: 1080 ng/mL | AUC(0-t) [7]: 1180 ng·h/mL | Cmax [8]: 689 ng/mL | bioavailability [9]: > 100% | AUC(0-inf) [10]: 1440 ng·h/mL | clearance [11]: 11.6 mL/min/kg | half-life [12]: 4.41 h | Cmax [13]: 602 ng/mL | Cmax [26]: 3050 ng/mL | Cmax [27]: 2000 ng/mL | fCmax (Mus musculus [28]): 903 ng/mL | fAUC (Mus musculus [29]): 3167 ng·h/mL | fAUC (Mus musculus [30]): 129 ng·h/mL | concentration at 240 h [31]: 598 nM | concentration at 240 h [32]: 45 nM | Cp(f) (Mus musculus [33]): 13 nM
Compound: CCc1c[nH]c2ncnc(N3CC[C@](N)(CNC(=O)c4ccc(F)cc4F)C3)c12
inhibition in vivo at 100 mg/kg (PC-3 [14]): 75% | TGI (PC-3 [15]): 98% | inhibition in vivo at 150 mg/kg (COLO 205): 60% | inhibition in vivo at 75 mg/kg (Mus musculus [16]): 75% | AUIC (Mus musculus [17]): 822 %.hr | AUIC (Mus musculus [18]): 207 %.hr | inhibition in vivo at 100 mg/kg (Mus musculus [19]): 48% | inhibition in vivo at 75 mg/kg (Mus musculus [20]): 34% | inhibition in vivo at 25 mg/kg (Mus musculus [21]): > 9% | Activity (Mus musculus [22]): 302% | AUEC (Mus musculus [23]): 5879 %.hr | AUEC (Mus musculus [24]): 4352 %.hr | Activity (Mus musculus [25]): 181% | Activity (Mus musculus [34]): Non-toxic
